Data set [1] concerns the target recombinant full-length human hydroxyacid oxidase 1 (HAO1), the equivalent of hGOX (Homo sapiens (Human), UniProt Q9UJM8). The experiment in a line: In-vitro human glycolate oxidase (hGOX) assay (Amplex red/HRP fluorescence). In kind it is biochemical.
Description: Biological Activity Assay: In-Vitro Human Glycolate Oxidase (hGOX) Assay
The in-vitro glycolate oxidase assay was performed using recombinant full-length human hydroxyacid oxidase 1 (HAO1), the equivalent of hGOX. […] Purified HAO1 was dissolved in assay buffer consisting of 10 mM NaCl, 110 mM KCl, 2 mM MgCl2, 50 mM HEPES (pH 7.4) and 0.01% Triton™ X-100.
Data set [2] deals with glycolate oxidase (GOX) in HepaRG-CAR cells (Homo sapiens (Human), UniProt Q9UJM8). Put plainly: HepaRG-CAR cell-based assay for quantitation of glycolate oxidase inhibition (cellular glycolate flux, GC-MS).
Sequence of glycolate oxidase (GOX) in HepaRG-CAR cells (Q9UJM8 whole entry): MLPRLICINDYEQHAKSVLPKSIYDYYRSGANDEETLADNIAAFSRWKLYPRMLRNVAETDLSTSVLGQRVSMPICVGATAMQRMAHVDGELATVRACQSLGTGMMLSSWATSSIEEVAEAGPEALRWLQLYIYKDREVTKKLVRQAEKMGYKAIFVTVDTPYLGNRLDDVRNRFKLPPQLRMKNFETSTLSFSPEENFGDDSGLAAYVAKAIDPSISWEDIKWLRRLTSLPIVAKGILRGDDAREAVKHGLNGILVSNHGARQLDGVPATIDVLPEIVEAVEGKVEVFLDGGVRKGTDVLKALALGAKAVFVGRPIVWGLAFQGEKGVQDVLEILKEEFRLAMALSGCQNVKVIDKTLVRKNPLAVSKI
Data set [3] is described as follows: Solubility in phosphate buffered saline (PBS), pH 7.4. In kind it is physicochemical. As to conditions: phosphate buffer (PBS), aqueous buffer, kinetic from dmso stock; phosphate buffered saline pH 7.4, 1% DMSO, 1 hour shaking at room temperature. An outline of the steps:
(§1)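 DMSO stock (10 mM) diluted into 100 mM phosphate buffer pH 7.4, or into deionized distilled water for the aqueous assay, at 1% final DMSO and shaken 1 h at room temperature. After centrifugation, supernatants quantified by LC-MS/MS against a calibration curve with internal standard.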

Data set [4] in a line: Solubility in aqueous solution (deionized, distilled water). The settings on record: kinetic from dmso stock, 1% DMSO, read-out: Aqueous Solubility H2O. The format is physicochemical. An outline of the steps:
as §1

Data set [5] in a line: Metabolic stability in human liver microsomal preparation. In kind it is in vitro ADME. The settings on record: pH 7.4, human liver microsomes, NADPH, 37° C.; for half-life at 1 μM: 0-45 min, read-out: Metabolic Stability t1/2. An outline of the steps:
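Compound at 1.5 μM with 0.75 mg/mL human liver microsomes (concentrations before NADPH addition) in 0.1 M potassium phosphate, 1 mM EDTA, pH 7.4 was preincubated 5 min at 37 °C, then started with NADPH. Samples at 0, 5, 15, 30 and 45 min were quenched with acetonitrile/internal standard and analysed by LC/MS.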
For orientation: Microsomes from liver hold many membrane-bound enzymes, among them those of drug oxidation.

Data set [6] can be described thus: Stability in human plasma. As to conditions: read-out: Plasma Stability T1/2. The format is in vitro ADME. An outline of the steps: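 Pooled human plasma (pH 7.4-8) at 37° C, test compound spiked from a 0.02 mM solution in phosphate buffer with 0.5% BSA. Samples taken at 0, 5, 15, 30, 45 and 60 min, quenched with acetonitrile containing internal standard, and remaining compound measured by LC/MS.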

A short description of data set [7]: Protein binding (plasma equilibrium dialysis). In kind it is in vitro ADME. The settings on record: 5 hours at 37° C.; for fraction unbound at 5 h, 1 μM: read-out: Protein Binding Fraction Bound (converted). An outline of the steps: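 Compound spiked into plasma at 1 μM final (0.2% DMSO) and dialysed against phosphate buffer for 5 hours at 37 °C with shaking. Donor and receiver samples, matrix-matched and acetonitrile-quenched with internal standard, quantified by LC/MS/MS alongside 0-hour plasma samples.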
(In general: Equilibrium dialysis compares concentrations on both sides of a semipermeable membrane.)

Where [8] appears, read: HepaRG-CAR cells, 500 μM glycolate, 48 hours incubation, read-out: IC50.

Converted amounts (≈) assume the structure as drawn. Where two headings read alike, the source gives them in different places.

Sequence of recombinant full-length human hydroxyacid oxidase 1 (HAO1), the equivalent of hGOX (Q9UJM8 whole entry): as above

Regarding `CS(=O)(=O)c1ccc(-c2cccc(Oc3[nH]nnc3C(=O)O)c2)cc1` [Example I-257, 5-((4′-(Methylsulfonyl)-[1,1′-biphenyl]-3-yl)oxy)-1H-1,2,3-triazole-4-carboxylic acid], the IC50 – broadly, the point on the concentration scale where inhibition reaches its midpoint – in data set [1] worked out at 13 nM. In addition, the IC50 in data set [2] (setting [8]) turned out to be 2500 nM. In addition, the solubility – broadly, the concentration that dissolves in the medium under given conditions – at 1 h in data set [3] was 91.8 µM (≈ 33 µg/mL). The solubility at 1 h in data set [4] is 89.8 µM (≈ 32.3 µg/mL). Further, in data set [5], the CLint scaled – broadly, the capacity of the preparation to metabolise the compound, expressed as a volume cleared per time – at 1 μM turned out to be 1.53 mL/min/kg and the half-life at 1 μM was 19 h. For the same compound, the half-life at 2 μM in data set [6] was determined as 3.04 h. In data set [7], the recovery at 5 h, 1 μM came to 102% and the fraction unbound at 5 h, 1 μM was 0.022.
In the case of `Cc1cc(Oc2[nH]nnc2C(=O)O)ccc1Cl` [Example I-258, 5-(4-Chloro-3-methylphenoxy)-1H-1,2,3-triazole-4-carboxylic acid], the IC50 worked out at 44 nM in data set [1] and 300 nM in data set [2] (setting [8]). For the same compound, the solubility at 1 h in data set [3] turned out to be 95.8 µM (≈ 24.3 µg/mL); in data set [4], 93.5 µM (≈ 23.7 µg/mL). Besides, the CLint scaled at 1 μM in data set [5] is less than 0.15 mL/min/kg. Further, the half-life at 1 μM in data set [5] was more than 83.3 h. For the same compound, the half-life at 2 μM in data set [6] turned out to be 1.05 h. This compound came in with a recovery at 5 h, 1 μM in data set [7] of 110%.
In the case of `O=C(O)c1nn[nH]c1Oc1cccc(-c2ccccc2)c1` [Example I-249, 5-([1,1′-Biphenyl]-3-yloxy)-1H-1,2,3-triazole-4-carboxylic acid], the IC50 came out at 19 nM in data set [1] and 2000 nM in data set [2] (setting [8]). Also, the results for the solubility at 1 h in data set [3] and in data set [4] were 103 µM (≈ 29.1 µg/mL) and 108 µM (≈ 30.2 µg/mL), respectively. The compound also yielded an intrinsic clearance (CLint scaled) at 1 μM in data set [5] of 5 mL/min/kg. In addition, in data set [5], the half-life at 1 μM was 5.79 h. Moreover, the half-life at 2 μM in data set [6] amounted to 3.71 h. In data set [7], this compound had a recovery at 5 h, 1 μM of 99.2%.
Consider `O=C(O)c1nn[nH]c1Oc1ccc(-c2ccc(F)cc2)cc1` [Example I-160, 5-((4′-Fluoro-[1,1′-biphenyl]-4-yl)oxy)-1H-1,2,3-triazole-4-carboxylic acid], for which the IC50 is 12 nM in data set [1] and 2500 nM in data set [2] (setting [8]). Further, the solubility at 1 h was 101 µM (≈ 30.3 µg/mL) in data set [3] and 64.6 µM (≈ 19.3 µg/mL) in data set [4]. Also, the CLint scaled at 1 μM in data set [5] stood at 6.99 mL/min/kg. The half-life at 1 μM in data set [5] was found to be 4.14 h. For the same compound, the half-life at 2 μM in data set [6] was determined as 2.88 h. Moreover, the recovery at 5 h, 1 μM in data set [7] was determined as 93.6%.
Turning to `COc1cccc(-c2ccc(Oc3[nH]nnc3C(=O)O)cc2)c1` [Example I-158, 5-((3′-Methoxy-[1,1′-biphenyl]-4-yl)oxy)-1H-1,2,3-triazole-4-carboxylic acid], the values for the IC50 in data set [1] and in data set [2] were 8 nM and 5000 nM, respectively. In addition, the solubility at 1 h in data set [3] was determined as 106 µM (≈ 33 µg/mL); in data set [4], 101 µM (≈ 31.4 µg/mL). The compound also gave an intrinsic metabolic clearance (CLint scaled) at 1 μM in data set [5] of less than 0.15 mL/min/kg. In data set [5], the half-life at 1 μM is more than 83.3 h. In addition, the half-life at 2 μM in data set [6] is 4.77 h. For the same compound, the recovery at 5 h, 1 μM in data set [7] was determined as 92.5%.
For `O=C(O)c1[nH]nnc1Oc1ccc(-c2ccc(Cl)c(Cl)c2)cc1` [Example I-171, 5-((3′,4′-Dichloro-[1,1′-biphenyl]-4-yl)oxy)-1H-1,2,3-triazole-4-carboxylic acid], the IC50 in data set [1] is 10 nM; in data set [2] (setting [8]), more than 10000 nM. The solubility at 1 h worked out at 96.3 µM (≈ 33.7 µg/mL) in data set [3] and 45.8 µM (≈ 16 µg/mL) in data set [4]. The compound also displayed a CLint scaled at 1 μM in data set [5] of 14.4 mL/min/kg. Besides, the half-life at 1 μM in data set [5] amounted to 2.01 h. Besides, the half-life at 2 μM in data set [6] came out at 1.93 h. Further, the recovery at 5 h, 1 μM in data set [7] came to 87.5%.
In the case of `O=C(O)c1nn[nH]c1Oc1cncc(-c2ccccc2)c1` [Example I-262, 5-((5-Phenylpyridin-3-yl)oxy)-1H-1,2,3-triazole-4-carboxylic acid], in data set [1], the IC50 was found to be 191 nM. Further, the IC50 in data set [2] (setting [8]) is more than 10000 nM. The same compound registered a solubility at 1 h in data set [3] of 97.2 µM (≈ 27.4 µg/mL). In addition, in data set [4], the solubility at 1 h was determined as 94.2 µM (≈ 26.6 µg/mL). In data set [5], the CLint scaled at 1 μM is less than 0.15 mL/min/kg and the half-life at 1 μM was more than 83.3 h. In data set [6], the half-life at 2 μM worked out at 1.63 h. Besides, in data set [7], the recovery at 5 h, 1 μM was 120% and the fraction unbound at 5 h, 1 μM is 0.009.
With `COc1ccc(-c2cccc(Oc3[nH]nnc3C(=O)O)c2)cc1` [Example I-250, 5-((4′-Methoxy-[1,1′-biphenyl]-3-yl)oxy)-1H-1,2,3-triazole-4-carboxylic acid], the IC50 in data set [1] was determined as 25 nM. The same compound showed an IC50 in data set [2] of more than 5000 nM. In addition, the solubility at 1 h in data set [3] was found to be 110 µM (≈ 34.1 µg/mL). Also, the solubility at 1 h in data set [4] amounted to 99.4 µM (≈ 30.9 µg/mL). Moreover, in data set [5], the CLint scaled at 1 μM was 8.95 mL/min/kg and the half-life at 1 μM came to 3.24 h. Besides, the half-life at 2 μM in data set [6] came out at 2.43 h. For the same compound, in data set [7], the recovery at 5 h, 1 μM was 98.8% and the fraction unbound at 5 h, 1 μM was 0.089.
Take `O=C(O)c1[nH]nnc1Oc1ccc(-c2ccc(Cl)cc2)cc1` [Example I-152, 5-((4′-Chloro-[1,1′-biphenyl]-4-yl)oxy)-1H-1,2,3-triazole-4-carboxylic acid]: the IC50 in data set [1] is 17 nM; in data set [2] (setting [8]), 10000 nM. Also, in data set [6], the half-life at 2 μM was 3.22 h. In data set [7], this compound came in with a recovery at 5 h, 1 μM of 97.7%.
As for `O=C(O)c1nn[nH]c1Oc1cccc(S(F)(F)(F)(F)F)c1` [Example I-269, 5-(3-Pentafluorosulfanylphenoxy)-1H-1,2,3-triazole-4-carboxylic acid], the IC50 in data set [1] stood at 105 nM. In data set [3], this compound displayed a solubility at 1 h of 109 µM (≈ 36 µg/mL). Also, in data set [4], the solubility at 1 h came to 103 µM (≈ 34.2 µg/mL). Further, in data set [5], the CLint scaled at 1 μM was less than 0.15 mL/min/kg and the half-life at 1 μM is more than 83.3 h. The half-life at 2 μM in data set [6] came out at 2.19 h. Further, in data set [7], the recovery at 5 h, 1 μM is 91.8% and the fraction unbound at 5 h, 1 μM was 0.01.
Consider `CCC(CC)c1ccc(Oc2[nH]nnc2C(=O)O)cc1` [Example I-272, 5-(4-(Pentan-3-yl)phenoxy)-1H-1,2,3-triazole-4-carboxylic acid], for which, in data set [1], the IC50 worked out at 84 nM. This compound also showed a solubility at 1 h in data set [3] of 103 µM (≈ 28.3 µg/mL). For the same compound, the solubility at 1 h in data set [4] was found to be 96.6 µM (≈ 26.6 µg/mL). Also, in data set [5], the CLint scaled at 1 μM was determined as 65.3 mL/min/kg and the half-life at 1 μM was 0.443 h. Further, the half-life at 2 μM in data set [6] was 4.61 h. In data set [7], this compound showed a recovery at 5 h, 1 μM of 101%.
Consider `O=C(O)c1nn[nH]c1Oc1ccc(-c2ccccc2)cc1` [Example I-150, 5-([1,1′-Biphenyl]-4-yloxy)-1H-1,2,3-triazole-4-carboxylic acid], for which, in data set [1], the half-maximal inhibitory concentration (IC50) came out at 23 nM. This compound had a solubility at 1 h in data set [3] of 95.7 µM (≈ 26.9 µg/mL). Further, in data set [4], the solubility at 1 h turned out to be 83.1 µM (≈ 23.4 µg/mL). In data set [5], the CLint scaled at 1 μM is 3.04 mL/min/kg and the half-life at 1 μM was determined as 8.78 h. For the same compound, the half-life at 2 μM in data set [6] is 0.747 h. In addition, the recovery at 5 h, 1 μM in data set [7] is 100%.
As to `CCCC(C)c1cccc(Oc2[nH]nnc2C(=O)O)c1` (stereo not drawn) [Example I-277], the IC50 in data set [1] was 65 nM. In addition, the solubility at 1 h in data set [3] came out at 113 µM (≈ 31.1 µg/mL). For the same compound, the solubility at 1 h in data set [4] worked out at 97.2 µM (≈ 26.8 µg/mL). Moreover, in data set [5], the CLint scaled at 1 μM turned out to be 8.56 mL/min/kg and the half-life at 1 μM was 3.38 h. The half-life at 2 μM in data set [6] was found to be 2.71 h. Besides, in data set [7], the recovery at 5 h, 1 μM stood at 108% and the fraction unbound at 5 h, 1 μM is 0.003.
Turning to `O=C(O)c1nn[nH]c1Sc1ccc2ccccc2c1` [Example I-031, 5-(Naphthalen-2-ylthio)-1H-1,2,3-triazole-4-carboxylic acid], in data set [1], the IC50 was 69 nM. Further, the solubility at 1 h in data set [3] turned out to be 121 µM (≈ 32.8 µg/mL); in data set [4] it was 110 µM (≈ 29.8 µg/mL). For the same compound, the CLint scaled at 1 μM in data set [5] stood at 2.21 mL/min/kg. For the same compound, the half-life at 1 μM in data set [5] was 13.1 h. In addition, in data set [6], the half-life at 2 μM was 1.25 h. For the same compound, the recovery at 5 h, 1 μM in data set [7] worked out at 117%.

These data come from patent publication US11389456B2, “Compounds and methods for treating oxalate-related diseases” (OxaluRx, Inc., priority 2018, dated 2022).
